The text below walks through data of article PMC6821655, “Marine Archaeon Methanosarcina acetivorans Enhances Polyphosphate Metabolism Under Persistent Cadmium Stress” (Frontiers in Microbiology, 2019).

The assay concerns the target T1, Ma-PPK (Methanosarcina acetivorans, UniProt Q8TUI6).
T1 construct: recombinant full-length, heterologously overexpressed and purified; gene product 2187 bp (about 728 residues), 81 kDa; tag and host only in supplement
Description: polyphosphate synthesis, toluidine blue absorbance at […] nm. Particulars: variable Mg-ATP; trimethylsilyl polyP; 37 °C; Km given as unchanged with or without 120 mM K+; read-out: KmATP. It is filed as biochemical.

T1 sequence (Q8TUI6 entry or part of it): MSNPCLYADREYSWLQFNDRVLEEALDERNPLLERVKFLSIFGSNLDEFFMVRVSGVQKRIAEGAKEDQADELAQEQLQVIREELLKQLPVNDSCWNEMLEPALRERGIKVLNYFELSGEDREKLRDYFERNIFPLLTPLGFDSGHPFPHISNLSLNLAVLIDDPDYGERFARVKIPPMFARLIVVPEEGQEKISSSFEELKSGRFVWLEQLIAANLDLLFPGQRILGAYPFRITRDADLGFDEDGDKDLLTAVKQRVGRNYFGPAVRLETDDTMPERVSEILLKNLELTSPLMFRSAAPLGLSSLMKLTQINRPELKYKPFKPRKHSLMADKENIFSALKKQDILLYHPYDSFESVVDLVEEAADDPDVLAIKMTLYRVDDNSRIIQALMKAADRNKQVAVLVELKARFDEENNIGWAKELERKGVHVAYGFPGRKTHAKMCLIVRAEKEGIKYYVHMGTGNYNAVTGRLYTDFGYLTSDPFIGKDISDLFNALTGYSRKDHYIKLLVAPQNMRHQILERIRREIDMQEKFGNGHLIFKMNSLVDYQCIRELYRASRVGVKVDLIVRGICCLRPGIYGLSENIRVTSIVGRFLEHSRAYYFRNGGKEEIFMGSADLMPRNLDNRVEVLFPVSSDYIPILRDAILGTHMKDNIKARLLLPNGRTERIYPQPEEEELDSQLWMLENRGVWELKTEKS

Regarding `Nc1ncnc2c1ncn2[C@@H]1O[C@H](COP(=O)(O)OP(=O)(O)OP(=O)(O)O)[C@@H](O)[C@H]1O` [ATP], the Km is 1400 µM.
